Results as given in US4873225A, “1-n-(4-amino-3-fluoro-2-hydroxybutyryl)-kanamycins” (Zaidan Hojin Biseibutsu Kagaku Kenkyu Kai, priority 1987, dated 1989).
In brackets after ≈: the same amount, converted by molar mass. Like-named read-outs stand apart in the source and are kept apart here.

How the values were obtained:
Assay in all cases: MIC, standard serial dilution method
Format in all cases: cell-based
[1] = tested on: Escherichia coli K-12 R5; details: K12R5, pH 7
Experimental: (§1) Antibacterial activities of each of the abovementioned compounds of the general formula (I) according to this invention were determined by measuring their minimum growth inhibitory concentrations (MIC, mcg/ml) against various bacteria in accordance with a standard serial dilution method. The pH condition of the incubation medium where the MIC data were measured was set at pH 7, unless otherwise specifically indicated. For the sake of comparison, the antibacterial spectra of 1-N-{(S)-4-amino-2-hydroxybutyryl}kanamycin A (i.e., amikacin) and 1-N-{(S)-4-amino-2-hydroxybutyryl}-3,4-dideoxykanamycin B (i.e., habekacin) were also measured in the same manner.
Infectious diseases by Escherichia coli K-12 R5 tend to increase in recent days. The compounds of this invention are therefore important for the therapeutic treatment of bacterial infections.

[2] = tested on: Escherichia coli JR66/W677; details: for MIC: Escherichia coli; for antibacterial activity (MIC) at pH 6 as compared to pH 7: pH 6 vs pH 7
Experimental: as §1
(§2) (a) The antibacterial activities of the compounds of this invention are not decreased practically even under pH conditions of pH […] as compared to their antibacterial activities under neutral conditions of pH 7.

[3] = tested on: Pseudomonas aeruginosa TI 13; details: for MIC: Pseudomonas aeruginosa; for antibacterial activity (MIC) at pH 6 as compared to pH 7: pH 6 vs pH 7
Experimental: as §1, §2

[4] = tested on: Escherichia coli K-12 ML 1629
Experimental: as §1

[5] = tested on: Bacillus subtilis PCI219
Experimental: as §1

[6] = tested on: Corynebacterium bovis 1810; details: Corynebacterium bovis, 1810, pH 7
Experimental: as §1

[7] = tested on: Klebsiella pneumoniae 22 #3038
Experimental: as §1

[8] = tested on: Proteus rettgeri GN 311; details: Providencia rettgeri, GN311, pH 7
Experimental: as §1

[9] = tested on: Staphylococcus aureus Ap01
Experimental: as §1

[10] = tested on: Staphylococcus aureus 209P
Experimental: as §1

[11] = tested on: Escherichia coli K-12 LA 290 R55; details: K12LA290R55, pH 7
Experimental: as §1

[12] = tested on: Pseudomonas aeruginosa GN 315; details: GN315, pH 7
Experimental: as §1

[13] = tested on: Pseudomonas aeruginosa A3
Experimental: as §1

[14] = tested on: Escherichia coli JR 225; details: JR225, pH 7
Experimental: as §1

[15] = tested on: Serratia marcescens
Experimental: as §1

[16] = tested on: Mycobacterium 607; details: Mycobacterium, 607, pH 7
Experimental: as §1

[17] = tested on: Providencia sp. Pv 16
Experimental: as §1

[18] = tested on: Escherichia coli K-12; details: K12, pH 7
Experimental: as §1

[19] = JR66/W677, measured at pH 6, read-out: MIC
[20] = TI13, measured at pH 6, read-out: MIC

Row | Structure (SMILES) | MIC [1] | MIC [2, 19] | MIC [3, 20] | MIC [11] | MIC [12] | MIC [14] | MIC ([15]; pH 7, read-out: MIC) | MIC [18] | MIC ([2]; JR66/W677, pH 7, read-out: MIC) | MIC ([3]; TI13, pH 7, read-out: MIC) | MIC ([4]; K12ML1629, pH 7, read-out: MIC) | MIC ([5]; PCI219, pH 7, read-out: MIC) | MIC ([6]; read-out: MIC) | MIC ([8]; read-out: MIC) | MIC ([9]; AP01, pH 7, read-out: MIC) | MIC ([10]; pH 7, read-out: MIC) | MIC ([13]; A3, pH 7, read-out: MIC) | MIC ([16]; read-out: MIC) | MIC ([7]; pH 7, read-out: MIC) | MIC ([17]; SP.PV16, pH 7, read-out: MIC) | also measured
1 | NCC[C@H](O)C(=O)N[C@@H]1C[C@H](N)[C@@H](O[C@H]2O[C@H](CN)[C@@H](O)[C@H](O)[C@H]2O)[C@H](O)[C@H]1O[C@H]1O[C@H](CO)[C@@H](O)[C@H](N)[C@H]1O [Amikacin, 1-N-{(S)-4-amino-2-hydroxybutyryl}kanamycin A, reference compound] | 25 mg/L (≈ 42.7 µM) | 25 mg/L (≈ 42.7 µM) | 12.5 mg/L (≈ 21.3 µM) | 1.56 mg/L (≈ 2.66 µM) | 25 mg/L (≈ 42.7 µM) | 0.78 mg/L (≈ 1.33 µM) | 6.25 mg/L (≈ 10.7 µM) | 0.78 mg/L (≈ 1.33 µM) |  |  |  |  |  |  |  |  |  |  |  |  | MIC ([2]; JR66/W677, pH 7): 3.12 mg/L (≈ 5.33 µM); antibacterial activity (MIC) at pH 6 as compared to pH 7 [2]: reduced considerably at pH 6; MIC ([3]; TI13, pH 7): 3.12 mg/L (≈ 5.33 µM); antibacterial activity (MIC) at pH 6 as compared to pH 7 [3]: reduced considerably at pH 6; MIC ([4]; K12ML1629, pH 7): 1.56 mg/L (≈ 2.66 µM); MIC ([5]; PCI219, pH 7): 1.56 mg/L (≈ 2.66 µM); MIC [6]: 1.56 mg/L (≈ 2.66 µM); MIC ([7]; pH 7): 3.12 mg/L (≈ 5.33 µM); MIC [8]: 1.56 mg/L (≈ 2.66 µM); MIC ([9]; AP01, pH 7): 3.12 mg/L (≈ 5.33 µM); MIC ([10]; pH 7): 1.56 mg/L (≈ 2.66 µM); MIC ([13]; A3, pH 7): 1.56 mg/L (≈ 2.66 µM); MIC [16]: 1.56 mg/L (≈ 2.66 µM); MIC ([17]; SP.PV16, pH 7): 1.56 mg/L (≈ 2.66 µM)
2 | NCC[C@H](O)C(=O)N[C@@H]1C[C@H](N)[C@@H](O[C@H]2O[C@H](CN)CC[C@H]2N)[C@H](O)[C@H]1O[C@H]1O[C@H](CO)[C@@H](O)[C@H](N)[C@H]1O [Habekacin, 1-N-{(S)-4-amino-2-hydroxybutyryl}-3,4-dideoxykanamycin B, reference compound] | 25 mg/L (≈ 45.2 µM) |  | 25 mg/L (≈ 45.2 µM) | 0.78 mg/L (≈ 1.41 µM) | 3.12 mg/L (≈ 5.65 µM) | 0.78 mg/L (≈ 1.41 µM) |  | 0.39 mg/L (≈ 0.706 µM) | 0.78 mg/L (≈ 1.41 µM) | 0.78 mg/L (≈ 1.41 µM) | 0.78 mg/L (≈ 1.41 µM) | < 0.2 mg/L | 0.39 mg/L (≈ 0.706 µM) | 0.78 mg/L (≈ 1.41 µM) | 0.39 mg/L (≈ 0.706 µM) | < 0.2 mg/L | < 0.2 mg/L | 0.39 mg/L (≈ 0.706 µM) |  |  | MIC ([2]; JR66/W677, pH 6): 6.25 mg/L (≈ 11.3 µM); antibacterial activity (MIC) at pH 6 as compared to pH 7 [2]: reduced considerably at pH 6; antibacterial activity (MIC) at pH 6 as compared to pH 7 [3]: reduced considerably at pH 6; MIC ([7]; pH 7): 1.56 mg/L (≈ 2.82 µM); MIC ([15]; pH 7): 12.5 mg/L (≈ 22.6 µM); MIC ([17]; SP.PV16, pH 7): 1.56 mg/L (≈ 2.82 µM)
3 | NC[C@@H](F)[C@H](O)C(=O)N[C@@H]1C[C@H](N)[C@@H](O[C@H]2O[C@H](CN)[C@@H](O)[C@H](O)[C@H]2O)[C@H](O)[C@H]1O[C@H]1O[C@H](CO)[C@@H](O)[C@H](N)[C@H]1O [Invention Compound No. 1, 1-N-{(2R,3R)-4-Amino-3-fluoro-2-hydroxybutyryl}-kanamycin A] | 12.5 mg/L (≈ 20.7 µM) | 6.25 mg/L (≈ 10.4 µM) | 3.12 mg/L (≈ 5.17 µM) | 1.56 mg/L (≈ 2.58 µM) | 25 mg/L (≈ 41.4 µM) | 0.78 mg/L (≈ 1.29 µM) | 3.12 mg/L (≈ 5.17 µM) | 0.39 mg/L (≈ 0.646 µM) | 1.56 mg/L (≈ 2.58 µM) | 3.12 mg/L (≈ 5.17 µM) | 1.56 mg/L (≈ 2.58 µM) | 0.78 mg/L (≈ 1.29 µM) | 0.78 mg/L (≈ 1.29 µM) | 0.39 mg/L (≈ 0.646 µM) | 6.25 mg/L (≈ 10.4 µM) | 1.56 mg/L (≈ 2.58 µM) | 0.78 mg/L (≈ 1.29 µM) | 1.56 mg/L (≈ 2.58 µM) | 3.12 mg/L (≈ 5.17 µM) | 1.56 mg/L (≈ 2.58 µM) | 
4 | NC[C@@H](F)[C@H](O)C(=O)N[C@@H]1C[C@H](N)[C@@H](O[C@H]2O[C@H](CN)[C@@H](O)C[C@H]2F)[C@H](O)[C@H]1O[C@H]1O[C@H](CO)[C@@H](O)[C@H](N)[C@H]1O [Invention Compound No. 3, 1-N-{(2R,3R)-4-Amino-3-fluoro-2-hydroxybutyryl}-2',3'-dideoxy-2'-fluorokanamycin A] | 6.25 mg/L (≈ 10.6 µM) | 1.56 mg/L (≈ 2.65 µM) | 3.12 mg/L (≈ 5.29 µM) | 0.78 mg/L (≈ 1.32 µM) | 12.5 mg/L (≈ 21.2 µM) | 0.39 mg/L (≈ 0.661 µM) | 1.56 mg/L (≈ 2.65 µM) | 0.2 mg/L (≈ 0.339 µM) | 0.78 mg/L (≈ 1.32 µM) | 3.12 mg/L (≈ 5.29 µM) | 0.39 mg/L (≈ 0.661 µM) | 0.39 mg/L (≈ 0.661 µM) | 0.78 mg/L (≈ 1.32 µM) | 0.78 mg/L (≈ 1.32 µM) | 1.56 mg/L (≈ 2.65 µM) | 0.78 mg/L (≈ 1.32 µM) | 0.78 mg/L (≈ 1.32 µM) | 0.78 mg/L (≈ 1.32 µM) | 0.78 mg/L (≈ 1.32 µM) | 0.78 mg/L (≈ 1.32 µM) | 
5 | NC[C@@H](F)[C@H](O)C(=O)N[C@@H]1C[C@H](N)[C@@H](O[C@H]2O[C@H](CN)[C@@H](O)[C@H](O)[C@H]2O)[C@H](F)[C@H]1O[C@H]1O[C@H](CO)[C@@H](O)[C@H](N)[C@H]1O [Invention Compound No. 4, 1-N-{(2R,3R)-4-Amino-3-fluoro-2-hydroxybutyryl}-5-deoxy-5-fluorokanamycin A] | 6.25 mg/L (≈ 10.3 µM) | 3.12 mg/L (≈ 5.15 µM) | 3.12 mg/L (≈ 5.15 µM) | 0.78 mg/L (≈ 1.29 µM) | 25 mg/L (≈ 41.3 µM) | 0.39 mg/L (≈ 0.644 µM) | 6.25 mg/L (≈ 10.3 µM) | 0.78 mg/L (≈ 1.29 µM) | 1.56 mg/L (≈ 2.58 µM) | 3.12 mg/L (≈ 5.15 µM) | 0.39 mg/L (≈ 0.644 µM) | 3.12 mg/L (≈ 5.15 µM) | 0.39 mg/L (≈ 0.644 µM) | 1.56 mg/L (≈ 2.58 µM) | 6.25 mg/L (≈ 10.3 µM) | 1.56 mg/L (≈ 2.58 µM) | 1.56 mg/L (≈ 2.58 µM) | 3.12 mg/L (≈ 5.15 µM) | 3.12 mg/L (≈ 5.15 µM) | 1.56 mg/L (≈ 2.58 µM) | 
6 | NC[C@@H](F)[C@H](O)C(=O)N[C@@H]1C[C@H](N)[C@@H](O[C@H]2O[C@H](CN)[C@@H](O)[C@H](O)[C@H]2N)[C@H](O)[C@H]1O[C@H]1O[C@H](CO)[C@@H](O)[C@H](N)[C@H]1O [Invention Compound No. 5, 1-N-{(2R,3R)-4-Amino-3-fluoro-2-hydroxybutyryl}-kanamycin B] | 3.12 mg/L (≈ 5.18 µM) | 3.12 mg/L (≈ 5.18 µM) | 3.12 mg/L (≈ 5.18 µM) | 0.78 mg/L (≈ 1.29 µM) | 6.25 mg/L (≈ 10.4 µM) | 0.39 mg/L (≈ 0.647 µM) | 6.25 mg/L (≈ 10.4 µM) | 0.2 mg/L (≈ 0.332 µM) | 0.78 mg/L (≈ 1.29 µM) | 1.56 mg/L (≈ 2.59 µM) | 0.78 mg/L (≈ 1.29 µM) | 1.56 mg/L (≈ 2.59 µM) | 0.39 mg/L (≈ 0.647 µM) | 0.39 mg/L (≈ 0.647 µM) | 6.25 mg/L (≈ 10.4 µM) | 0.78 mg/L (≈ 1.29 µM) | 0.78 mg/L (≈ 1.29 µM) | 12.5 mg/L (≈ 20.7 µM) | 3.12 mg/L (≈ 5.18 µM) | 1.56 mg/L (≈ 2.59 µM) | 
